Test results as given in ChEMBL document CHEMBL1201862, “PubChem BioAssay data set” (2004).
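96-well plates; 48 h exposure; 5 concentrations. Endpoints by linear interpolation between flanking doses. Not reached: highest tested concentration assigned. The concentration for 50% growth inhibition is given as GI50.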 Active and inactive are the calls of the source. Rule as the data show it: active = GI50 up to about 1.1 µM and inactive = higher.

Tests used:
Experiment in all cases: NCI anticancer screen, dose series, 48 h
OVCAR-4 = tested on: OVCAR-4
RXF 393 = tested on: RXF 393
T47D = tested on: T47D
SN12C = tested on: SN12C
MDA-MB-231 = tested on: MDA-MB-231
HCT-15 = tested on: HCT-15
IGROV-1 = tested on: IGROV-1
HOP-62 = tested on: HOP-62
NCI-H226 = tested on: NCI-H226
A498 = tested on: A498
A549 = tested on: A549
COLO 205 = tested on: COLO 205
OVCAR-8 = tested on: OVCAR-8
ACHN = tested on: ACHN
SK-MEL-28 = tested on: SK-MEL-28
DU-145 = tested on: DU-145
NCI-H460 = tested on: NCI-H460
SK-MEL-5 = tested on: SK-MEL-5
UACC-257 = tested on: UACC-257
UO-31 = tested on: UO-31

SMILES | GI50 (OVCAR-4) | GI50 (RXF 393) | GI50 (T47D) | GI50 (SN12C) | GI50 (MDA-MB-231) | GI50 (HCT-15) [µM] | GI50 (IGROV-1) | GI50 (HOP-62) | GI50 (NCI-H226) | GI50 (A498) | GI50 (A549) | GI50 (COLO 205) | GI50 (OVCAR-8) | GI50 (ACHN) | GI50 (SK-MEL-28) | GI50 (DU-145) | GI50 (NCI-H460) | GI50 (SK-MEL-5) | GI50 (UACC-257) | GI50 (UO-31)
O=C(Nc1ccc(Cl)cc1)c1cc2c(cc1Cl)Sc1nccn1S2(=O)=O | 37.3 µM (inactive) | 27.5 µM (inactive) | > 100 µM (inactive) | 49.7 µM (inactive) | 43.7 µM (inactive) | 35.7 | 60.1 µM (inactive) | 33.7 µM (inactive) | 51.3 µM (inactive) | 29.6 µM (inactive) | > 100 µM (inactive) | > 100 µM (inactive) | 51.3 µM (inactive) | 75.5 µM (inactive) | 40.5 µM (inactive) | > 100 µM (inactive) | 42.5 µM (inactive) | 44.7 µM (inactive) | – | –
CC1=C2CN(C(=O)OCC(C)C)CCC2C2=C(C(=O)c3ccccc3C2=O)C1C (stereo not drawn) | > 10 µM (inactive) | > 10 µM (inactive) | > 10 µM (inactive) | > 10 µM (inactive) | > 10 µM (inactive) | > 10 | > 10 µM (inactive) | > 10 µM (inactive) | – | – | > 10 µM (inactive) | > 10 µM (inactive) | > 10 µM (inactive) | – | > 10 µM (inactive) | > 10 µM (inactive) | – | > 10 µM (inactive) | > 10 µM (inactive) | –
C(=N\NC1=NCCN1)/c1ccc(-c2cn3cc(/C=N/NC4=NCCN4)ccc3n2)cc1 | 31 µM (inactive) | > 55.6 µM (inactive) | > 100 µM (inactive) | > 36.9 µM (inactive) | 14.6 µM (inactive) | > 68.4 | 15 µM (inactive) | – | – | 40.3 µM (inactive) | 10.2 µM (inactive) | > 100 µM (inactive) | 37.5 µM (inactive) | 34.6 µM (inactive) | – | 16.6 µM (inactive) | 3.76 µM (inactive) | > 100 µM (inactive) | 30.3 µM (inactive) | 46 µM (inactive)
O=c1[nH]nc(Cc2ccc([N+](=O)[O-])cc2)n1CCO | > 100 µM (inactive) | – | > 100 µM (inactive) | > 100 µM (inactive) | > 100 µM (inactive) | > 100 | > 100 µM (inactive) | – | > 100 µM (inactive) | > 100 µM (inactive) | > 100 µM (inactive) | > 100 µM (inactive) | > 100 µM (inactive) | > 100 µM (inactive) | > 100 µM (inactive) | > 100 µM (inactive) | > 100 µM (inactive) | > 100 µM (inactive) | > 100 µM (inactive) | > 100 µM (inactive)
CCCCCCCC(=O)NC(C)(C)C(=O)NCC(=O)NC(CC(C)C)C(=O)NC(C)(C)C(=O)NCC(=O)NCC(=O)NC(CC(C)C)C(=O)NC(C)(C)C(=O)NCC(=O)NC(C(=O)NC(CO)CC(C)C)C(C)CC (stereo not drawn) | 4.01 µM (inactive) | 4.05 µM (inactive) | 3.14 µM (inactive) | 4.28 µM (inactive) | 4 µM (inactive) | 4.86 | 3.84 µM (inactive) | 4.28 µM (inactive) | 4.5 µM (inactive) | – | 4.36 µM (inactive) | 3.81 µM (inactive) | 4.21 µM (inactive) | 5 µM (inactive) | 3.72 µM (inactive) | 4.55 µM (inactive) | 4.48 µM (inactive) | 3.85 µM (inactive) | 4.41 µM (inactive) | 4.3 µM (inactive)
COCC1OC([P+](c2ccccc2)(c2ccccc2)c2ccccc2)CC(OC)C1OC (stereo not drawn) | 44.1 µM (inactive) | 27.2 µM (inactive) | 20.6 µM (inactive) | 29.1 µM (inactive) | 44.3 µM (inactive) | > 100 | – | – | 33.9 µM (inactive) | 37.2 µM (inactive) | – | – | 28.8 µM (inactive) | 74.6 µM (inactive) | 68.1 µM (inactive) | 32.2 µM (inactive) | – | 18.2 µM (inactive) | 21 µM (inactive) | > 100 µM (inactive)
COc1cc2c(cc1O)-c1c(OC)c(O)cc3c1C(C2)N(C)CC3 (stereo not drawn) | > 100 µM (inactive) | > 100 µM (inactive) | > 100 µM (inactive) | > 100 µM (inactive) | > 100 µM (inactive) | > 100 | > 100 µM (inactive) | – | > 100 µM (inactive) | > 100 µM (inactive) | > 100 µM (inactive) | > 100 µM (inactive) | > 100 µM (inactive) | > 100 µM (inactive) | – | > 100 µM (inactive) | > 100 µM (inactive) | > 100 µM (inactive) | > 100 µM (inactive) | > 100 µM (inactive)
CCOC(=O)/C=C/CC(C)(C)CCOC(C)=O | > 10 µM (inactive) | > 10 µM (inactive) | > 10 µM (inactive) | > 10 µM (inactive) | > 10 µM (inactive) | > 10 | > 10 µM (inactive) | > 10 µM (inactive) | > 10 µM (inactive) | – | > 10 µM (inactive) | > 10 µM (inactive) | > 10 µM (inactive) | > 10 µM (inactive) | > 10 µM (inactive) | > 10 µM (inactive) | > 10 µM (inactive) | > 10 µM (inactive) | > 10 µM (inactive) | > 10 µM (inactive)
CCOC(=O)C(C(=O)OCC)=C1SC(=N\c2ccccc2)/C(=N/c2ccccc2)N1c1ccccc1 | – | 28.2 µM (inactive) | > 100 µM (inactive) | > 100 µM (inactive) | > 100 µM (inactive) | > 100 | > 100 µM (inactive) | 34.2 µM (inactive) | > 100 µM (inactive) | > 100 µM (inactive) | > 100 µM (inactive) | > 100 µM (inactive) | > 100 µM (inactive) | 64 µM (inactive) | > 100 µM (inactive) | > 100 µM (inactive) | > 100 µM (inactive) | 52.1 µM (inactive) | – | > 100 µM (inactive)
Cc1cc(N(C)C)c2ccccc2[n+]1CCCCCCCCCC[n+]1c(C)cc(N(C)C)c2ccccc21.[O-][Cl+3]([O-])([O-])[O-].[O-][Cl+3]([O-])([O-])[O-] | 1.63 µM (inactive) | 5.27 µM (inactive) | 0.428 µM (active) | 0.251 µM (active) | 0.491 µM (active) | 3.81 | 6.05 µM (inactive) | – | 3.33 µM (inactive) | 2.07 µM (inactive) | 0.587 µM (active) | 0.265 µM (active) | 1.07 µM (active) | 1.48 µM (inactive) | 0.986 µM (active) | 1.58 µM (inactive) | 0.348 µM (active) | 0.165 µM (active) | 0.238 µM (active) | 3.38 µM (inactive)
CCOP(=O)(OCC)/C(=C/NC(=S)c1ccncc1)C(=O)OC | > 100 µM (inactive) | > 100 µM (inactive) | > 100 µM (inactive) | > 100 µM (inactive) | > 100 µM (inactive) | > 100 | > 100 µM (inactive) | > 100 µM (inactive) | > 100 µM (inactive) | – | > 100 µM (inactive) | > 100 µM (inactive) | > 100 µM (inactive) | > 100 µM (inactive) | – | > 100 µM (inactive) | > 100 µM (inactive) | > 100 µM (inactive) | > 100 µM (inactive) | > 100 µM (inactive)
CC(=O)N1N(c2ccc([N+](=O)[O-])cc2)C(=O)C1(C)C | 19.2 µM (inactive) | 18 µM (inactive) | 39.3 µM (inactive) | 16.5 µM (inactive) | 20.1 µM (inactive) | 15.7 | 20.6 µM (inactive) | 19.3 µM (inactive) | 21.1 µM (inactive) | 37.9 µM (inactive) | > 10 µM (inactive) | 15.5 µM (inactive) | 23.2 µM (inactive) | 19.7 µM (inactive) | 17.9 µM (inactive) | 35.6 µM (inactive) | 29.4 µM (inactive) | 16.9 µM (inactive) | – | 17.1 µM (inactive)
Cn1cc2c(=O)n3ncn(-c4ccc(Br)cc4)c3nc2n1 | > 100 µM (inactive) | > 100 µM (inactive) | > 100 µM (inactive) | > 100 µM (inactive) | > 100 µM (inactive) | > 100 | > 100 µM (inactive) | – | > 100 µM (inactive) | > 100 µM (inactive) | > 100 µM (inactive) | > 100 µM (inactive) | > 100 µM (inactive) | > 100 µM (inactive) | > 100 µM (inactive) | > 100 µM (inactive) | > 100 µM (inactive) | 87.9 µM (inactive) | > 100 µM (inactive) | > 100 µM (inactive)
O=C1CCC2(CCO1)OCCO2 | > 100 µM (inactive) | > 100 µM (inactive) | > 100 µM (inactive) | > 100 µM (inactive) | > 100 µM (inactive) | > 100 | > 100 µM (inactive) | > 100 µM (inactive) | > 100 µM (inactive) | – | > 100 µM (inactive) | – | > 100 µM (inactive) | > 100 µM (inactive) | > 100 µM (inactive) | > 100 µM (inactive) | > 100 µM (inactive) | > 100 µM (inactive) | > 100 µM (inactive) | > 100 µM (inactive)
COC(=O)C1(C#N)C(C)(C)N=C(c2ccccc2)C12CCCCC2 (stereo not drawn) | > 100 µM (inactive) | > 100 µM (inactive) | > 100 µM (inactive) | > 100 µM (inactive) | > 100 µM (inactive) | > 100 | > 100 µM (inactive) | > 100 µM (inactive) | – | > 100 µM (inactive) | 85.7 µM (inactive) | > 100 µM (inactive) | > 100 µM (inactive) | – | 82 µM (inactive) | > 100 µM (inactive) | > 100 µM (inactive) | > 100 µM (inactive) | > 100 µM (inactive) | 75.7 µM (inactive)
